Test results reported in ChEMBL document CHEMBL6103592, “Discovery of novel thiazole-pleuromutilin derivatives with potent antibacterial activity” (Eur J Med Chem, 2025).
pIC50: −log10 of the molar value. Values after ≈ are worked out from the molar mass of the structure shown. Active and inactive are the calls of the source. No cut-off for these calls is given here.

Legend:
Staphylococcus aureus [1] = assay: Antibacterial activity against methicillin-resistant Staphylococcus aureus ATCC 43300 assessed as inhibition of visible bacterial growth incubated for 24 hrs by CLSI based broth microdilution method; format: functional
Staphylococcus aureus [2] = assay: Antibacterial activity against Staphylococcus aureus ATCC 25923 assessed as inhibition of visible bacterial growth incubated for 24 hrs by CLSI based broth microdilution method; format: functional
Enterococcus faecalis = assay: Antibacterial activity against Enterococcus faecalis assessed as inhibition of visible bacterial growth incubated for 24 hrs by CLSI based broth microdilution method; format: functional
Escherichia coli = assay: Antibacterial activity against Escherichia coli ATCC 25922 assessed as inhibition of visible bacterial growth incubated for 24 hrs by CLSI based broth microdilution method; format: functional
Staphylococcus aureus [3] = assay: Bactericidal activity against methicillin-resistant Staphylococcus aureus ATCC 43300 assessed as increase in colony forming unit count at 1 times MIC incubated after 8 hrs by time-kill assay; format: functional, organism-based
Staphylococcus aureus [4] = assay: Antibacterial activity against methicillin-resistant Staphylococcus aureus ATCC 43300 assessed as post antibiotic effect at 1 times MIC measured after 1 hr; format: functional
Staphylococcus aureus [5] = assay: Antibacterial activity against methicillin-resistant Staphylococcus aureus ATCC 43300 assessed as post antibiotic effect at 2 times MIC measured after 1 hr; format: functional
Staphylococcus aureus [6] = assay: Antibacterial activity against methicillin-resistant Staphylococcus aureus ATCC 43300 assessed as post antibiotic effect at 8 times MIC measured after 1 hr; format: functional
Staphylococcus aureus [7] = assay: Antibacterial activity against methicillin resistant Staphylococcus aureus; format: functional
Staphylococcus aureus [8] = assay: Antibacterial activity against methicillin-resistant Staphylococcus aureus ATCC 43300 assessed as reduction in bacterial proteins level at 0.5 to 2 microg/ml measured for 4 hrs; format: functional, organism-based; conditions: dose 0.5-2 µg/ml
Staphylococcus aureus [9] = assay: Antibacterial efficacy against methicillin-resistant Staphylococcus aureus ATCC 43300 infected in cyclophosphamide-induced neutropenic systemic infection Kunming mouse model assessed as effect on survival rate at 20 mg/kg, iv pretreated with cyclophosphamide for 1 hr followed by compound addition and measured after 7 days; format: functional, organism-based; conditions: time 7.0 day
Staphylococcus aureus [10] = assay: Antibacterial efficacy against methicillin-resistant Staphylococcus aureus ATCC 43300 infected in cyclophosphamide-induced neutropenic systemic infection Kunming mouse model assessed as inflammatory cell infiltration in lung at 20 mg/kg, iv pretreated with cyclophosphamide for 1 hr followed by compound addition and measured after 5 days by light microscopic analysis; format: functional, organism-based; conditions: time 5.0 day
[11] = Cytotoxicity against human HEK293T cells assessed as cell viability at 200 micromol/L incubated for 24 hrs by CCK-8 assay relative to control; format: toxicity, cell-based, HEK-293T; conditions: dose 200 µmol/L, read-out: Activity
HepG2 = assay: Cytotoxicity against human HepG2 cells assessed as cell viability incubated for 24 hrs by CCK-8 assay; format: functional, cell-based; conditions: HepG2, 24 h
[12] = Acute toxicity in rat assessed as reduction in food intake at 2000 mg/kg, po measured for 14 days; format: organism-based; conditions: in vivo, 336 h, time 14 day
[13] = Acute toxicity in rat assessed as reduction in water consumption at 2000 mg/kg, po measured for 14 days; format: organism-based; conditions: in vivo, 336 h, time 14 day
[14] = Acute toxicity in rat assessed as reduction in food intake at 2000 mg/kg, po measured at 24 hrs; format: organism-based; conditions: in vivo
[15] = Acute toxicity in rat assessed as reduction in water consumption at 2000 mg/kg, po measured at 24 hrs; format: organism-based; conditions: in vivo
[16] = Acute toxicity in rat assessed as body weight change at 2000 mg/kg, po measured at 24 hrs; format: organism-based; conditions: in vivo
[17] = Acute toxicity in rat assessed as pathological changes in spleen at 2000 mg/kg, po measured for 14 days; format: organism-based; conditions: in vivo, 336 h, time 14 day
[18] = Acute toxicity in rat assessed as pathological changes in lung at 2000 mg/kg, po measured for 14 days; format: organism-based; conditions: in vivo, 336 h, time 14 day
[19] = Acute toxicity in rat assessed as swelling in uterus at 2000 mg/kg, po measured for 14 days by H and E staining based analysis; format: organism-based; conditions: in vivo, 336 h, time 14 day
[20] = Acute toxicity in rat assessed as necrosis of epithelial cells at 2000 mg/kg, po measured for 14 days by H and E staining based analysis; format: organism-based; conditions: in vivo, 336 h, time 14 day
[21] = Acute toxicity in po dosed rat assessed as lethal dose measured for 14 days […]; format: organism-based; conditions: in vivo, time 14 day
[22] = Acute toxicity in rat assessed as absolute heart weight at 2000 mg/kg, po measured for 7 days (reference value: 0.77 +/- 0.12 g); format: organism-based; conditions: in vivo, 168 h, time 7 day
[23] = Acute toxicity in rat assessed as absolute spleen weight at 2000 mg/kg, po measured for 7 days (reference value: 0.53 +/- 0.04g); format: organism-based; conditions: in vivo, 168 h, time 7 day
[24] = Acute toxicity in rat assessed as absolute kidney weight at 2000 mg/kg, po measured for 7 days (reference value: 1.60 +/- 0.16 g); format: organism-based; conditions: in vivo, 168 h, time 7 day
[25] = Acute toxicity in rat assessed as absolute uterus weight at 2000 mg/kg, po measured for 7 days (reference value: 0.52 +/- 0.18 g); format: organism-based; conditions: in vivo, 168 h, time 7 day
[26] = Acute toxicity in rat assessed as absolute liver weight at 2000 mg/kg, po administered for 7 days followed by readministration after 7 days and measured at 14 days (reference value: 8.43 +/- 0.43 g); format: organism-based; conditions: in vivo, 336 h, time 14 day
[27] = Acute toxicity in rat assessed as absolute spleen weight at 2000 mg/kg, po administered for 7 days followed by readministration after 7 days and measured at 14 days (reference value: 0.53 +/- 0.04 g); format: organism-based; conditions: in vivo, 336 h, time 14 day
[28] = Acute toxicity in rat assessed as absolute lung weight at 2000 mg/kg, po administered for 7 days followed by readministration after 7 days and measured at 14 days (reference value: 1.12 +/- 0.07 g); format: organism-based; conditions: in vivo, 336 h, time 14 day
[29] = Acute toxicity in rat assessed as absolute kidney weight at 2000 mg/kg, po administered for 7 days followed by readministration after 7 days and measured at 14 days (reference value: 1.60 +/- 0.16 g); format: organism-based; conditions: in vivo, 336 h, time 14 day
[30] = Acute toxicity in rat assessed as relative heart weight at 2000 mg/kg, po measured for 7 days (reference value: 0.40 +/- 0.06%); format: organism-based; conditions: in vivo, 168 h, time 7 day
[31] = Acute toxicity in rat assessed as relative spleen weight at 2000 mg/kg, po measured for 7 days (reference value: 0.27 +/- 0.02%); format: organism-based; conditions: in vivo, 168 h, time 7 day
[32] = Acute toxicity in rat assessed as relative uterus weight at 2000 mg/kg, po measured for 7 days (reference value: 0.27 +/- 0.09%); format: organism-based; conditions: in vivo, 168 h, time 7 day
[33] = Acute toxicity in rat assessed as relative heart weight at 2000 mg/kg, po administered for 7 days followed by readministration after 7 days and measured at 14 days (reference value: 0.40 +/- 0.06 %); format: organism-based; conditions: in vivo, 336 h, time 14 day
[34] = Acute toxicity in rat assessed as relative spleen weight at 2000 mg/kg, po administered for 7 days followed by readministration after 7 days and measured at 14 days (reference value: 0.27 +/- 0.02 %); format: organism-based; conditions: in vivo, 336 h, time 14 day
[35] = Acute toxicity in rat assessed as relative kidney weight at 2000 mg/kg, po administered for 7 days followed by readministration after 7 days and measured at 14 days (reference value: 0.83 +/- 0.08%); format: organism-based; conditions: in vivo, 336 h, time 14 day

C=C[C@]1(C)C[C@@H](OC(=O)CSc2nc(OC(=O)c3ccc(C(C)(C)C)cc3)cs2)[C@]2(C)[C@H](C)CC[C@]3(CCC(=O)[C@H]32)[C@@H](C)[C@@H]1O
MIC (Staphylococcus aureus [1]): 0.25 mg/L (≈ 0.382 µM)
MIC (Staphylococcus aureus [2]): 0.25 mg/L (≈ 0.382 µM)
MIC (Enterococcus faecalis): > 32 mg/L
MIC (Escherichia coli): > 32 mg/L
Activity (Staphylococcus aureus [3]): Active
PAE (Staphylococcus aureus [4]): 0.801 h
PAE (Staphylococcus aureus [5]): 1.09 h
PAE (Staphylococcus aureus [6]): 2.27 h
MIC (Staphylococcus aureus [7]): 0.5 mg/L (≈ 0.765 µM)
Activity (Staphylococcus aureus [8]): Active
Activity (Staphylococcus aureus [9]): Active
Activity (Staphylococcus aureus [10]): Active
viability at 24 h, 200 µM [11]: 60%
pIC50 (HepG2): < 3.70
Activity [12]: Toxic
Activity [13]: Toxic
Activity [14]: Non-toxic
Activity [15]: Non-toxic
Activity [16]: Non-toxic
Activity [17]: Non-toxic
Activity [18]: Non-toxic
Activity [19]: Non-toxic
Activity [20]: Non-toxic
LD50 at 336 h [21]: 2000 mg/kg
Activity [22]: 0.75 g
Activity [23]: 0.53 g
Activity [24]: 1.54 g
Activity [25]: 0.52 g
Activity [26]: 8.57 g
Activity [27]: 0.53 g
Activity [28]: 1.28 g
Activity [29]: 1.63 g
Activity [30]: 0.39%
Activity [31]: 0.28%
Activity [32]: 0.27%
Activity [33]: 0.36%
Activity [34]: 0.25%
Activity [35]: 0.76%
